Active and inactive are the calls of the source. The calls are words filed in the database; no cut-off is given here.
What was measured:
[1] = tested on: Quadruplex DNA; experiment: Binding affinity to synthetic 5'Dabcyl/3'-FAM-labeled EGFR 272 G4 quadruplex DNA folded DNA assessed as entropy change by isothermal titration calorimetry; assay type: nucleic-acid assay
[2] = tested on: DU-145; experiment: Induction of apoptosis in human DU145 cells assessed as increase in cleaved PARP1 level after 48 to 96 hrs by Western blot analysis; assay type: functional, cell-based
[3] = tested on: PC-3; experiment: Effect on ephithelial-mesenchymal transition in human PC3 cell assessed as increase in vimentin at 48 hrs 0.5 times IC50 treated for every week for 56 days by Western immunoblotting analysis; assay type: functional, cell-based
[4] = tested on: DU-145; experiment: Effect of EGFR protein expression in human DU145 cell at 48 hrs IC50 treated for every week for 56 days by Western immunoblotting analysis; assay type: functional, cell-based
[5] = molecular target: T1, Mitogen-activated protein kinase; ERK1/ERK2 (Homo sapiens) (UniProt P27361+P28482); experiment: Effect on ERK 1/2 phosphorylation at T202/Y204 residues in human PC3 cells assessed as decrease in ERK1/2 phosphorylation at T202/Y204 at 48 hrs IC50 incubated for 48 hrs by Western immunoblot assay; assay type: cell-based
[6] = tested on: PC-3; experiment: Effect of EGFR protein expression in human PC3 cell assessed as reduction in EGFR level at 48 hrs IC50 treated for every week for 56 days by Western immunoblotting analysis; assay type: functional
[7] = tested on: PC-3; experiment: Effect on human PC3 cell growth assessed as no change in population doubling at 48 hr IC50 incubated for 48 hrs by cell counter based trypan blue exclusion assay; assay type: functional
[8] = tested on: PC-3; experiment: Effect on ERK 1/2 basal level in human PC3 cells assessed as downregulation of ERK 1/2 basal level at 48 hrs IC50 incubated for 48 hrs by Western immunoblot assay; assay type: ADME, cell-based; settings: pc-3, 48 h
[9] = tested on: Quadruplex DNA; experiment: Stabilization of synthetic 5'Dabcyl/3'-FAM-labeled EGFR 272 G4 quadruplex DNA assessed as change in melting temperature at 1 uM by Fluorescence melting assay; assay type: nucleic-acid assay
[10] = tested on: DU-145; experiment: Effect on ERK 1 basal level in human DU145 cells assessed as reduction in ERK 1 basal level at 48 hrs IC50 incubated for 48 hrs by Western immunoblot assay; assay type: ADME, cell-based; settings: du-145, 48 h
[11] = tested on: Quadruplex DNA; experiment: Stabilization of synthetic 5'Dabcyl/3'-FAM-labeled telomeric 22 G4 quadruplex DNA assessed as change in melting temperature by fluorescence melting assay; assay type: nucleic-acid assay
[12] = molecular target: RAC-alpha serine/threonine-protein kinase (Homo sapiens) (UniProt P31749); experiment: Effect on AKT phosphorylation at S473 homozygous PTEN-deficient human PC3 cells as reduction in AKT phosphorylation at S473 residue at 48 hr IC50 incubated for 48 to 96 hrs by Western immunoblot assay
[13] = tested on: PC-3; experiment: Effect on human PC3 cell growth assessed as population doubling at 48 hr IC50 incubated for 96 hrs by cell counter based trypan blue exclusion assay (reference value: 2.6); assay type: functional
[14] = tested on: PC-3; experiment: Induction of apoptosis in human PC3 cells assessed as increase in cleaved PARP1 level after 48 to 96 hrs by Western blot analysis; assay type: functional, cell-based
[15] = tested on: PC-3; experiment: Effect on ERK 1/2 basel level in human PC3 cells assessed as downregulation of ERK 1/2 basal level at 48 hrs IC50 incubated for 96 hrs by Western immunoblot assay; assay type: ADME, cell-based; settings: pc-3, 96 h
[16] = tested on: Quadruplex DNA; experiment: Binding affinity to synthetic 5'Dabcyl/3'-FAM-labeled telomeric 22 G4 quadruplex DNA folded DNA assessed as entropy change by isothermal titration calorimetry; assay type: nucleic-acid assay
[17] = organism: Homo sapiens; experiment: Effect on telomere DNA in human PC3 cell assessed as increase in telomere DNA length at 48 hrs 0.5 times IC50 treated for every week for 56 days by pulsed field electrophoresis/southern blot based densitometric analysis
[18] = tested on: DU-145; experiment: Cytotoxicity against human DU145 cells assessed as decrease in cell viability after 72 hrs by MTS assay; assay type: functional, cell-based; settings: DU-145, 72 h
[19] = tested on: DU-145; experiment: Effect on ERK 2 basal level in human DU145 cells assessed as reduction in ERK 2 basal level at 48 hrs IC50 incubated for 48 hrs by Western immunoblot assay; assay type: ADME, cell-based; settings: du-145, 48 h
[20] = tested on: DU-145; experiment: Effect on human DU145 cell growth assessed as population doubling at 48 hr IC50 incubated for 96 hrs by cell counter based trypan blue exclusion assay (reference value: 2.89); assay type: functional
[21] = tested on: PC-3; experiment: Down regulation of EGFR protein expression in human PC3 cells after 24 hrs by Western immunoblot assay; assay type: functional, cell-based
[22] = tested on: DU-145; experiment: Down regulation of EGFR protein expression in human DU145 cells after 24 hrs by Western immunoblot assay; assay type: functional, cell-based
[23] = organism: Homo sapiens; experiment: Effect on telomere DNA in human DU145 cells assessed as telomere DNA length at 48 hrs 0.5 times IC50 treated for every week for 56 days by pulsed field electrophoresis/southern blot based densitometric analysis (reference value: 3.9 +/- 0.5 kb); assay type: cell-based
[24] = tested on: PC-3; experiment: Effect on telomeric C-circle DNA in human PC3 cell assessed as alternative telomere maintenance based increase in telomeric C-circle DNA level at 48 hrs 0.5 times IC50 treated for every week for 56 days [32P]-labeled (CCCTAA)3 probe incubated for 56 days followed by post incubation of 8 hrs in presence of Bacillus phage phi29 DNA polymerase and further heat inactivation at 65 degreeC for 20 mins by dot blot based CC assay; assay type: functional
[25] = molecular target: T1, Mitogen-activated protein kinase; ERK1/ERK2 (Homo sapiens); experiment: Effect on ERK 1/2 phosphorylation at T202/Y204 residues in human DU145 cells assessed as increase in ERK1/2 phosphorylation at T202/Y204 at 48 hrs IC50 incubated for 48 to 96 hrs by Western immunoblot assay; assay type: cell-based
[26] = tested on: DU-145; experiment: Effect on human DU145 cell growth assessed as change in cell growth at 72 hrs 0.5 times IC50 treated for every week for 56 days by cell counter based trypan blue exclusion assay; assay type: functional
[27] = tested on: PC-3; experiment: Cytotoxicity against human PC3 cells assessed as decrease in cell viability after 72 hrs by MTS assay; assay type: functional, cell-based; settings: PC-3, 72 h
[28] = tested on: PC-3; experiment: Down regulation of EGFR protein expression in human PC3 cells at 48 hrs IC50 incubated for 96 hrs by Western immunoblot assay relative to control; assay type: functional
[29] = tested on: PC-3; experiment: Cytotoxicity against human PC3 cells assessed as decrease in cell viability after 24 hrs by MTS assay; assay type: functional, cell-based; settings: PC-3, 24 h
[30] = tested on: DU-145; experiment: Down regulation of EGFR protein expression in human DU145 cells at 48 hrs IC50 incubated for 96 hrs by Western immunoblot assay relative to control; assay type: functional
[31] = tested on: DU-145; experiment: Cytotoxicity against human DU145 cells assessed as decrease in cell viability after 48 hrs by MTS assay; assay type: functional, cell-based; settings: DU-145, 48 h
[32] = tested on: PC-3; experiment: Effect on AKT basal level in homozygous PTEN-deficient human PC3 cells assessed as reduction in AKT basal level at 48 hr IC50 incubated for 48 to 96 hrs by Western immunoblot assay; assay type: ADME, cell-based
[33] = tested on: PC-3; experiment: Down regulation of EGFR protein expression in human PC3 cells at 48 hrs IC50 incubated for 48 hrs by Western immunoblot assay relative to control; assay type: functional
[34] = organism: Homo sapiens; experiment: Effect on telomere DNA in human PC3 cells assessed as telomere DNA length at 48 hrs 0.5 times IC50 treated for every week for 56 days by pulsed field electrophoresis/southern blot based densitometric analysis (reference value: 4.6 +/- 0.3 kb); assay type: cell-based
[35] = tested on: PC-3; experiment: Cytotoxicity against human PC3 cells assessed as decrease in cell viability after 48 hrs by MTS assay; assay type: functional, cell-based; settings: PC-3, 48 h
[36] = tested on: PC-3; experiment: Effect on ephithelial-mesenchymal transition in human PC3 cell assessed as decrease in E-cadherin expression at 48 hrs 0.5 times IC50 treated for every week for 56 days by Western immunoblotting analysis; assay type: functional, cell-based
[37] = molecular target: T1, Mitogen-activated protein kinase; ERK1/ERK2 (Homo sapiens); experiment: Effect on ERK 1/2 phosphorylation at T202/Y204 residues in human PC3 cells assessed as decrease in ERK1/2 phosphorylation at T202/Y204 at 48 hrs IC50 incubated for 96 hrs by Western immunoblot assay; assay type: cell-based
[38] = tested on: PC-3; experiment: Effect on human PC3 cell growth assessed as reduction in cell growth at 72 hrs 0.5 times IC50 treated for every week for 56 days by cell counter based trypan blue exclusion assay; assay type: functional
[39] = tested on: Quadruplex DNA; experiment: Stabilization of synthetic 5'Dabcyl/3'-FAM-labeled EGFR 272 G4 quadruplex DNA assessed as change in melting temperature by fluorescence melting assay; assay type: nucleic-acid assay
[40] = molecular target: RAC-alpha serine/threonine-protein kinase (Homo sapiens) (UniProt P31749); experiment: Effect on AKT phosphorylation at S473 in heterozygous PTEN-positive human DU145 cells as reduction in AKT phosphorylation at S473 residue at 48 hr IC50 incubated for 48 hrs by Western immunoblot assay
[41] = tested on: Quadruplex DNA; experiment: Binding affinity to synthetic 5'Dabcyl/3'-FAM-labeled telomeric 22 G4 quadruplex DNA folded DNA assessed as enthalpy change by isothermal titration calorimetry; assay type: nucleic-acid assay
[42] = tested on: DU-145; experiment: Cytotoxicity against human DU145 cells assessed as decrease in cell viability after 24 hrs by MTS assay; assay type: functional, cell-based; settings: DU-145, 24 h
[43] = tested on: Quadruplex DNA; experiment: Binding affinity to synthetic 5'Dabcyl/3'-FAM-labeled EGFR 272 G4 quadruplex DNA folded DNA assessed as enthalpy change by isothermal titration calorimetry; assay type: nucleic-acid assay
[44] = tested on: DU-145; experiment: Effect on AKT basal level in heterozygous PTEN-positive human DU145 cells assessed as reduction in AKT basal level at 48 hrs IC50 incubated for 48 hrs by Western immunoblot assay; assay type: ADME, cell-based; settings: du-145, 48 h

T1 sequence (P27361 whole entry, looked up): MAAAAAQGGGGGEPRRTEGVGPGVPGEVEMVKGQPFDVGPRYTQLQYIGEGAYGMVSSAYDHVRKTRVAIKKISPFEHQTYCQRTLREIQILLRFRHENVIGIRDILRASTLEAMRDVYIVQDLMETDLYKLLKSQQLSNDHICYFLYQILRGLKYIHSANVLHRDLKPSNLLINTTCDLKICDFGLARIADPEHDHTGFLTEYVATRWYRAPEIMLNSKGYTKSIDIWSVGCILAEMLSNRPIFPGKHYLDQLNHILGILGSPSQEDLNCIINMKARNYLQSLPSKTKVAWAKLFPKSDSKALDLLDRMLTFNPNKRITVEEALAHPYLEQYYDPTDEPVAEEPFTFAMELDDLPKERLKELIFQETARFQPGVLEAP
T1 sequence (P28482 whole entry, looked up): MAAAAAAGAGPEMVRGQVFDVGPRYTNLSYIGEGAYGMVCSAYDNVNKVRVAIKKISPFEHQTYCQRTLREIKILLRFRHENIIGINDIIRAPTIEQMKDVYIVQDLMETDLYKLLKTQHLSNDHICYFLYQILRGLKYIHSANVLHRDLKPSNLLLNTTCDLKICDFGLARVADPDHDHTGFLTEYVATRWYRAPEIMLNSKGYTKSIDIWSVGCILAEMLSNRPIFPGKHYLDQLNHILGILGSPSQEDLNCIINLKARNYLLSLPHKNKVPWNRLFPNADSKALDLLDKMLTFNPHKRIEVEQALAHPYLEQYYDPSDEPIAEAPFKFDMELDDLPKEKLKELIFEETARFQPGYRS
RAC-alpha serine/threonine-protein kinase (Homo sapiens), sequence (P31749 whole entry): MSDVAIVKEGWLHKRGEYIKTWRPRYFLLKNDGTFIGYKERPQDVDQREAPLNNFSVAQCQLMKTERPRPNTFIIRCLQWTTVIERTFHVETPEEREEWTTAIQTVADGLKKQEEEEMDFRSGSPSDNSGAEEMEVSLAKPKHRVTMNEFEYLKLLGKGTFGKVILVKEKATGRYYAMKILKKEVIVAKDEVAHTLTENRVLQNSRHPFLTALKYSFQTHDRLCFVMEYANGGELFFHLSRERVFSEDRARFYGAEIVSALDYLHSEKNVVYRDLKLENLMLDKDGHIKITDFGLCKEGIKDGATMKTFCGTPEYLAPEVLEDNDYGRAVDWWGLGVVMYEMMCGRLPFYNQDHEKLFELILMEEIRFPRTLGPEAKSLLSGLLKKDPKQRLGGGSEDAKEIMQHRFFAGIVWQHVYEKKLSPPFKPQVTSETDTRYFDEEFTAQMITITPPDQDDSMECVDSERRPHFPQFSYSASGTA

## COc1ccccc1CNCCCN1C(=O)c2ccc3c4c(ccc(c24)C1=O)C(=O)N(CCCNCCCCN)C3=O
[1]
  deltaS: 18.9 cal/mol.K
[2]
  Activity: Active
[3]
  Activity: Active
[4]
  Activity: inactive
[5]
  Activity: Active
[6]
  inhibition (INH): 100%
[7]
  Activity: Active
[8]
  Activity: Toxic
[9]
  Activity: Active
[10]
  Activity: Toxic
[11]
  Activity: Active
[12]
  Activity: Active
[13]
  Activity: 0.97
[14]
  Activity: inactive
[15]
  Activity: Toxic
[16]
  deltaS: -1.9 cal/mol.K
[17]
  Activity: Active
[18]
  IC50: 2050 nM
[19]
  Activity: Toxic
[20]
  Activity: 1.85
[21]
  Activity: Dose-dependent effect
[22]
  Activity: Dose-dependent effect
[23]
  Activity: 3.8 kilobase
[24]
  Activity: Active
[25]
  Activity: Active
[26]
  Activity: inactive
[27]
  IC50: 1460 nM
[28]
  Activity: 50%
[29]
  IC50: 2800 nM
[30]
  Activity: 20%
[31]
  IC50: 2730 nM
[32]
  Activity: Toxic
[33]
  Activity: 70 - 80%
[34]
  Activity: 4.4 kilobase
[35]
  IC50: 2440 nM
[36]
  Activity: Active
[37]
  Activity: inactive
[38]
  Activity: Active
[39]
  Activity: Active
[40]
  Activity: inactive
[41]
  deltaH: -8 kcal/mol
[42]
  IC50: 4760 nM
[43]
  deltaH: -1.1 kcal/mol
[44]
  Activity: Toxic

## COc1ccc(CNCCCN2C(=O)c3ccc4c5c(ccc(c35)C2=O)C(=O)N(CCCNCc2ccc(OC)c(OC)c2OC)C4=O)c(OC)c1OC
[1]
  deltaS: -46.4 cal/mol.K
[2]
  Activity: Active
[3]
  Activity: Active
[4]
  Activity: inactive
[5]
  Activity: Active
[6]
  inhibition (INH): 100%
[7]
  Activity: Active
[8]
  Activity: Toxic
[9]
  Activity: Active
[10]
  Activity: Toxic
[11]
  Activity: Active
[12]
  Activity: Active
[13]
  Activity: 0.51
[14]
  Activity: inactive
[15]
  Activity: Toxic
[16]
  deltaS: -10.1 cal/mol.K
[17]
  Activity: Active
[18]
  IC50: 1720 nM
[20]
  Activity: 2
[21]
  Activity: Dose-dependent effect
[22]
  Activity: Dose-dependent effect
[23]
  Activity: 3.8 kilobase
[24]
  Activity: Active
[25]
  Activity: Active
[26]
  Activity: inactive
[27]
  IC50: 630 nM
[29]
  IC50: 1360 nM
[30]
  Activity: 20%
[31]
  IC50: 2260 nM
[32]
  Activity: Toxic
[33]
  Activity: 70 - 80%
[34]
  Activity: 4.5 kilobase
[35]
  IC50: 970 nM
[36]
  Activity: Active
[37]
  Activity: inactive
[38]
  Activity: Active
[39]
  Activity: Active
[40]
  Activity: inactive
[41]
  deltaH: -10.7 kcal/mol
[42]
  IC50: 3460 nM
[43]
  deltaH: -21.5 kcal/mol
[44]
  Activity: Toxic

— ChEMBL document CHEMBL4393726, “Distinct biological responses of metastatic castration resistant prostate cancer cells upon exposure to G-quadruplex interacting naphthalenediimide derivatives” (Eur J Med Chem, 2019)
